Where two headings read alike, the source gives them in different places.
Assays:
[1] = test system: Clostridium carboxidivorans DSM15243;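 note: growth tracked as optical density at 600 nm, while ethanol and acetate were quantified in culture samples by HPLC with a refractive index detector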
Source text: Growth was monitored by measuring the optical density at 600 nm (OD600nm) and metabolites were detected by HPLC.

[2] = test system: Clostridium autoethanogenum culture 19630
Method: Sterile 234 ml serum bottles were purged three times with 95% CO, 5% CO2 gas and then evacuated to a vacuum of −5 psi. The serum bottles were charged with 25 ml of LM33 media. Additional NiCl2 solutions were optionally added to the serum bottle (to final concentrations of 0.1 mM and 1 mM) which were inoculated with 1 ml of an actively growing Clostridium autoethanogenum culture 19630 from a continuous bioreactor. The headspace of the serum bottle was then filled with CO containing gas to 30 psi (composition 100% CO). The serum bottles were incubated at 37° C. and continuously agitated. Samples were taken at intervals and the headspace was purged and refreshed up to 30 psi following sampling.

[3] = test system: Clostridium autoethanogenum culture 19630; conditions: NiCl2 1 mM, fructose 3 g/L
Method: (§1) To determine the cell density in these experiments, the absorbance of the samples was measured at 600 nm (spectrophotometer) and the dry mass determined by extrapolation.
High Performance Liquid Chromatography (HPLC) was used to characterize the level of substrates and products such as for acetate, ethanol, fructose, xylose and pyruvate. HPLC System Agilent 1100 Series. Mobile Phase: 0.0025N Sulphuric Acid. Flow and pressure: 0.800 mL/min. Column: Alltech IOA; Catalog #9648, 150×6.5 mm, particle size 5 μm. Temperature of column: 60° C. Detector: Refractive Index. Temperature of detector: 45° C.
Method for sample preparation: 400 μL of sample+50 μL of 0.15M ZnSO4+50 μL of 0.15M Ba(OH)2 into an Eppendorf tube. Centrifuge 10 min at 12,000 rpm, 4° C. Transfer 200 μL supernatant into an HPLC vial and inject into the HPLC instrument 5 μL.
Sterile 234 ml serum bottles were purged three times with 95% CO, 5% CO2 gas and then evacuated to a vacuum of −5 psi. The serum bottles were charged with 25 ml of LM33 media. NiCl2 solution (to final concentrations of 1 mM) and fructose (3 g/L) were added to the serum bottle which was inoculated with 1 ml of an actively growing Clostridium autoethanogenum culture 19630 from a continuous bioreactor. The headspace of the serum bottle was then filled with CO containing gas to 30 psi (composition 100% CO). The serum bottles were incubated at 37° C. and continuously agitated. Samples were taken at intervals and the headspace was purged and refreshed up to 30 psi following sampling.

[4] = test system: Clostridium autoethanogenum culture 19630; conditions: 54 hours
Method: as §1
Each well was inoculated with 50 μL of an actively growing Clostridium autoethanogenum culture 19630 from a continuous bioreactor. The wells were then mixed thoroughly and 200 ul from each well was added to a 96 well tissue culture plate. The plate was then sealed with a gas permeable sealing film and placed into an anaerobic pressure vessel. This vessel was pressurized to 30 psi with 100% CO gas and placed on an orbital shaker (150 rpm) in an incubated chamber at 37° C. Samples were analyzed at 54 hours after incubation.

[Cl][Ni][Cl] [Nickel, nickel chloride]
Ethanol ([1]; Nickel 200 μM, 0 h): 0.18 ± 0.01 g/L | OD600 nm ([1]; Nickel 200 μM, 0 h): 0.010 ± 0.001 | Acetate ([1]; Nickel 200 μM, 30 h): 0.37 ± 0.13 g/L | Ethanol ([1]; Nickel 200 μM, 30 h): 0.18 ± 0.01 g/L | OD600 nm ([1]; Nickel 200 μM, 30 h): 0.185 ± 0.052 | Acetate ([1]; Nickel 200 μM, 54 h): 0.38 ± 0.02 g/L | Ethanol ([1]; Nickel 200 μM, 54 h): 0.33 ± 0.02 g/L | OD600 nm ([1]; Nickel 200 μM, 54 h): 0.239 ± 0.028 | Acetate ([1]; Nickel 200 μM, 102 h): 0.43 ± 0.09 g/L | Ethanol ([1]; Nickel 200 μM, 102 h): 0.33 ± 0.19 g/L | OD600 nm ([1]; Nickel 200 μM, 102 h): 0.274 ± 0.025 | Acetate ([1]; Nickel 200 μM, 127 h): 0.61 ± 0.02 g/L | Ethanol ([1]; Nickel 200 μM, 127 h): 6.69 ± 0.08 g/L | OD600 nm ([1]; Nickel 200 μM, 127 h): 0.285 ± 0.046 | Ethanol ([1]; Nickel 400 μM, 0 h): 0.18 ± 0.06 g/L | OD600 nm ([1]; Nickel 400 μM, 0 h): 0.011 ± 0.002 | Acetate ([1]; Nickel 400 μM, 30 h): 0.35 ± 0.02 g/L | Ethanol ([1]; Nickel 400 μM, 30 h): 0.33 ± 0.11 g/L | OD600 nm ([1]; Nickel 400 μM, 30 h): 0.271 ± 0.001 | Acetate ([1]; Nickel 400 μM, 54 h): 0.41 ± 0.02 g/L | Ethanol ([1]; Nickel 400 μM, 54 h): 0.75 ± 0.01 g/L | OD600 nm ([1]; Nickel 400 μM, 54 h): 0.310 ± 0.037 | Acetate ([1]; Nickel 400 μM, 102 h): 0.37 ± 0.19 g/L | Ethanol ([1]; Nickel 400 μM, 102 h): 0.86 ± 0.03 g/L | OD600 nm ([1]; Nickel 400 μM, 102 h): 0.304 ± 0.035 | Acetate ([1]; Nickel 400 μM, 127 h): 0.47 ± 0.03 g/L | Ethanol ([1]; Nickel 400 μM, 127 h): 0.89 ± 0.08 g/L | OD600 nm ([1]; Nickel 400 μM, 127 h): 0.291 ± 0.026 | Ethanol ([1]; Nickel 700 μM, 0 h): 0.20 ± 0.01 g/L | OD600 nm ([1]; Nickel 700 μM, 0 h): 0.010 ± 0.001 | Acetate ([1]; Nickel 700 μM, 30 h): 0.34 ± 0.01 g/L | Ethanol ([1]; Nickel 700 μM, 30 h): 0.27 ± 0.01 g/L | OD600 nm ([1]; Nickel 700 μM, 30 h): 0.402 ± 0.014 | Acetate ([1]; Nickel 700 μM, 54 h): 0.40 ± 0.05 g/L | Ethanol ([1]; Nickel 700 μM, 54 h): 0.84 ± 0.03 g/L | OD600 nm ([1]; Nickel 700 μM, 54 h): 0.689 ± 0.097 | Acetate ([1]; Nickel 700 μM, 102 h): 0.65 ± 0.06 g/L | Ethanol ([1]; Nickel 700 μM, 102 h): 0.86 ± 0.25 g/L | OD600 nm ([1]; Nickel 700 μM, 102 h): 0.519 ± 0.078 | Acetate ([1]; Nickel 700 μM, 127 h): 0.63 ± 0.32 g/L | Ethanol ([1]; Nickel 700 μM, 127 h): 1.01 ± 0.17 g/L | OD600 nm ([1]; Nickel 700 μM, 127 h): 0.584 ± 0.088 | Ethanol ([1]; Nickel 1000 μM, 0 h): 0.18 ± 0.01 g/L | OD600 nm ([1]; Nickel 1000 μM, 0 h): 0.009 ± 0.001 | Acetate ([1]; Nickel 1000 μM, 30 h): 0.29 ± 0.04 g/L | Ethanol ([1]; Nickel 1000 μM, 30 h): 0.44 ± 0.09 g/L | OD600 nm ([1]; Nickel 1000 μM, 30 h): 0.705 ± 0.014 | Acetate ([1]; Nickel 1000 μM, 54 h): 0.39 ± 0.02 g/L | Ethanol ([1]; Nickel 1000 μM, 54 h): 0.74 ± 0.05 g/L | OD600 nm ([1]; Nickel 1000 μM, 54 h): 1.058 ± 0.006 | Acetate ([1]; Nickel 1000 μM, 102 h): 0.62 ± 0.21 g/L | Ethanol ([1]; Nickel 1000 μM, 102 h): 0.88 ± 0.03 g/L | OD600 nm ([1]; Nickel 1000 μM, 102 h): 0.943 ± 0.002 | Acetate ([1]; Nickel 1000 μM, 127 h): 0.47 ± 0.11 g/L | Ethanol ([1]; Nickel 1000 μM, 127 h): 1.04 ± 0.02 g/L | OD600 nm ([1]; Nickel 1000 μM, 127 h): 0.981 ± 0.088 | total microbial cell density ([2]; 0.1 mM nickel above LM33): 1.1 g/L | total microbial cell density ([2]; 1 mM nickel above LM33): 1.2 g/L | Acetate ([2]; Additional Nickel 0.1 mM, 18 h): 0.57 g/L | Cell density ([2]; Additional Nickel 0.1 mM, 18 h): 0.14 g/L | Ethanol ([2]; Additional Nickel 0.1 mM, 18 h): 0.37 g/L | Acetate ([2]; Additional Nickel 0.1 mM, 30 h): 0.61 g/L | Cell density ([2]; Additional Nickel 0.1 mM, 30 h): 0.54 g/L | Ethanol ([2]; Additional Nickel 0.1 mM, 30 h): 2.63 g/L | Acetate ([2]; Additional Nickel 0.1 mM, 80 h): 0.38 g/L | Cell density ([2]; Additional Nickel 0.1 mM, 80 h): 1.08 g/L | Ethanol ([2]; Additional Nickel 0.1 mM, 80 h): 7.14 g/L | Acetate ([2]; Additional Nickel 1 mM, 18 h): 0.48 g/L | Cell density ([2]; Additional Nickel 1 mM, 18 h): 0.18 g/L | Ethanol ([2]; Additional Nickel 1 mM, 18 h): 0.47 g/L | Acetate ([2]; Additional Nickel 1 mM, 30 h): 0.85 g/L | Cell density ([2]; Additional Nickel 1 mM, 30 h): 0.59 g/L | Ethanol ([2]; Additional Nickel 1 mM, 30 h): 2.59 g/L | Acetate ([2]; Additional Nickel 1 mM, 80 h): 0.66 g/L | Cell density ([2]; Additional Nickel 1 mM, 80 h): 1.23 g/L | Ethanol ([2]; Additional Nickel 1 mM, 80 h): 9.04 g/L | Acetic Acid ([3]; 12 h after inoculation): 0.42 g/L | Cell density ([3]; 12 h after inoculation): 0.16 g/L | Ethanol ([3]; 12 h after inoculation): 0.25 g/L | Fructose ([3]; 12 h after inoculation): 2.87 g/L | Acetic Acid ([3]; 18 h after inoculation): 0.48 g/L | Cell density ([3]; 18 h after inoculation): 0.20 g/L | Ethanol ([3]; 18 h after inoculation): 0.61 g/L | Fructose ([3]; 18 h after inoculation): 2.4 g/L | Acetic Acid ([3]; 30 h after inoculation): 0.45 g/L | Cell density ([3]; 30 h after inoculation): 0.73 g/L | Ethanol ([3]; 30 h after inoculation): 4.19 g/L | Fructose ([3]; 30 h after inoculation): 0 g/L | Acetic Acid ([3]; 80 h after inoculation): 0.38 g/L | Cell density ([3]; 80 h after inoculation): 0.98 g/L | Ethanol ([3]; 80 h after inoculation): 7.60 g/L | Fructose ([3]; 80 h after inoculation): 0 g/L | Acetic Acid ([3]; 96 h after inoculation): 0.31 g/L | Cell density ([3]; 96 h after inoculation): 1.07 g/L | Ethanol ([3]; 96 h after inoculation): 7.81 g/L | Fructose ([3]; 96 h after inoculation): 0 g/L | Cell density ([4]; Additional Nickel 100 μM): 0.23 g/L | Cell density ([4]; Additional Nickel 200 μM): 0.25 g/L | Cell density ([4]; Additional Nickel 300 μM): 0.28 g/L | Cell density ([4]; Additional Nickel 400 μM): 0.30 g/L | Cell density ([4]; Additional Nickel 500 μM): 0.35 g/L | Cell density ([4]; Additional Nickel 600 μM): 0.31 g/L | Cell density ([4]; Additional Nickel 700 μM): 0.37 g/L | Cell density ([4]; Additional Nickel 800 μM): 0.45 g/L | Cell density ([4]; Additional Nickel 900 μM): 0.43 g/L | Cell density ([4]; Additional Nickel 1000 μM): 0.39 g/L
